# Laboratory results reported in patent EP4467137A1, “TREATMENT OF FRONTOTEMPORAL DEMENTIA OR FRONTOTEMPORAL LOBAR DEMENTIA” (Universidad Autónoma de Madrid, priority 2023, dated 2024).
# Tests used:
# [1] = Oxygen Radical Absorbance Capacity Assay (ORAC); format: physicochemical; details: ORAC > 1.0 is a better ROS scavenger than trolox
# Protocol: The Oxygen Radical Absorbance Capacity Assay (ORAC) was performed as described [Herrera-Arozamena, Clara et al. "Resveratrol-Based MTDLs to Stimulate Defensive and Regenerative Pathways and Block Early Events in Neurodegenerative Cascades." Journal of medicinal chemistry vol. 65,6 (2022): 4727-4751. doi:10.1021/acs.jmedchem.1c01883].
# [2] = In vitro blood-brain barrier permeation assay (PAMPA-BBB); format: in vitro ADME; details: for Papp: PAMPA, permeation rate, mean ± SD, read-out: PAMPA-BBB Pe
# Description: The in vitro blood-brain barrier permeation assay (PAMPA-BBB) was used for predicting the brain penetration of compounds, following a described method [Herrera-Arozamena, Clara et al. "Resveratrol-Based MTDLs to Stimulate Defensive and Regenerative Pathways and Block Early Events in Neurodegenerative Cascades." Journal of medicinal chemistry vol. 65,6 (2022): 4727-4751. doi:10.1021/acs.jmedchem.1c01883]. The results are given as the mean ± SD. In each experiment, 11 quality control standards of known BBB permeability were included to validate the analysis set.
# [3] = Cell viability/toxicity by the MTT method; format: cell-based; details: human, effect of the compound per se on AREc332 cells
# Description: (§1) Based on the results obtained (Table 2), Compound 1 was selected for further in vitro and in vivo studies as it was endowed with the best anti-neuroinflammatory activity. Table 2: Comparative in vitro results. Cell viability/toxicity: effect of the compound per se on cell viability of […] cells measured with the MTT method. Anti-neuroinflammatory effect: % Reduction of nitrites in primary rat glial cultures. PAMPA-BBB: In vitro blood-brain barrier permeation assay, permeation rate Pe (10-6 cm.s-1). NRF2, CD (µM): Concentration of compound that doubles de activation of NRF2. ORAC: Oxygen radical absorbance capacity. LOX-5: lipoxygenase-5.
# NRF2 = NRF2 induction, luciferase activity in AREc32 cells; format: cell-based; details: concentration that doubles the activation of NRF2, read-out: NRF2 CD
# Description: Screening of NRF2 induction was quantified by luciferase activity in AREc32 cells as described in [Herrera-Arozamena, Clara et al. "Tuning melatonin receptor subtype selectivity in oxadiazolone-based analogues: Discovery of QR2 ligands and NRF2 activators with neurogenic properties." European journal of medicinal chemistry vol. 190 (2020): 112090. doi:10.1016/j.ejmech.2020.112090].
# as §1
# [4] = molecular target: T1, human lipoxygenase-5 (hLOX-5) (Homo sapiens, UniProt P09917); test: Inhibition of human lipoxygenase-5; format: biochemical; details: mean ± SD of three independent experiments in triplicate; read-out: LOX5 IC50
# T1 sequence (P09917 1-674): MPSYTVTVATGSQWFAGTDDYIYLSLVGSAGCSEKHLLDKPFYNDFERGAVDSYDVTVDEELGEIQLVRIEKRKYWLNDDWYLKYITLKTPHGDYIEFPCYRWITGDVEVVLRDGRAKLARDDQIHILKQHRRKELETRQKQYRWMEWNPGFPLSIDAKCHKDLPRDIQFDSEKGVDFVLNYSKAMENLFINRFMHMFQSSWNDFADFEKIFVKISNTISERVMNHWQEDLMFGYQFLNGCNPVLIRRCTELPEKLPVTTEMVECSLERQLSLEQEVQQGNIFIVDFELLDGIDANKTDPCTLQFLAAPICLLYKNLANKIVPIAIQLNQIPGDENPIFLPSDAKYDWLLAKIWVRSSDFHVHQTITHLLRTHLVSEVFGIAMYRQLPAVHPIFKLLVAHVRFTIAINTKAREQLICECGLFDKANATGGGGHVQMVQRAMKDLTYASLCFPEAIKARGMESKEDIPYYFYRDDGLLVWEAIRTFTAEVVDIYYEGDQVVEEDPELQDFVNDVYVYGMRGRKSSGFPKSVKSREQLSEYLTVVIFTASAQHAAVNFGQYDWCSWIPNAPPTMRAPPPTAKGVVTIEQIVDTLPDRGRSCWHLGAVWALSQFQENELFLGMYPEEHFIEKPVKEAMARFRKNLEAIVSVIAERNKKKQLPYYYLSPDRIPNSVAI
# Protocol: The inhibition of human lipoxygenase-5 (hLOX-5) was performed as described [Herrera-Arozamena, Clara et al. "Tuning melatonin receptor subtype selectivity in oxadiazolone-based analogues: Discovery of QR2 ligands and NRF2 activators with neurogenic properties." European journal of medicinal chemistry vol. 190 (2020): 112090. doi:10.1016/j.ejmech.2020.112090], Data are the mean ± SD of three independent experiments performed in triplicate.
# [5] = system: primary rat glial cultures; test: Anti-neuroinflammatory screening in LPS-treated primary glial cultures (Griess, normalized by MTT); format: cell-based; details: % reduction of nitrites, LPS alone = 100 % inflammation, read-out: Anti-neuro inflammatory effect at 3 µM (%)
# Protocol: Screening for anti-inflammatory properties in primary rat glial cultures was performed according to the protocol described previously [Gameiro, Isabel et al. "Discovery of the first dual GSK3β inhibitor/Nrf2 inducer. A new multitarget therapeutic strategy for Alzheimer's disease." Scientific reports vol. 7 45701. 31 Mar. 2017, doi:10.1038/srep45701]. All compounds were evaluated at the single concentration of 3 µM. Neuroinflammation was quantified as the value of released […], measured by the Griess method, normalized by the number of viable cells measured by the MTT method [Mosmann, T. "Rapid colorimetric assay for cellular growth and survival: application to proliferation and cytotoxicity assays." Journal of immunological methods vol. 65, 1-2 (1983): 55-63. doi:10.1016/0022-1759(83)90303-4]. LPS alone was considered 100 % inflammation.
# as §1
SMILES,ORAC (trolox equiv.) [1],PAMPA-BBB predicted brain penetration [2],Papp [2],CC50 [3],EC (2-fold activation) (NRF2),IC50 [4],inhibition at 3 µM [5]
"COc1ccc2[nH]c(-c3c[nH]c4ccc(OC)cc34)cc2c1 [Compound 2, 5,5'-Dimethoxy-1H,1'H-2,3'-biindole]",1.5 ± 0.2 trolox equiv.,cns+,8.7 ± 0.6 ×10⁻⁶ cm/s,3 to 10 µM,0.329 ± 0.017 µM,0.42 ± 0.03 µM,33.2 ± 11.8%
"c1ccc2c(c1)CC(c1c[nH]c3ccccc13)N2 (stereo not shown) [Compound 3, 3-(Indolin-2-yl)-1H-indole]",1.9 ± 0.1 trolox equiv.,cns+,11.5 ± 0.8 ×10⁻⁶ cm/s,> 30 µM,0.0713 ± 0.031 µM,2.89 ± 0.44 µM,24.4 ± 6.7%
"Clc1ccc2c(c1)CC(c1c[nH]c3ccc(Cl)cc13)N2 (stereo not shown) [Compound 4, 5-Chloro-3-(5-chloroindolin-2-yl)-1H-indole]",1.6 ± 0.2 trolox equiv.,cns+,5.2 ± 0.4 ×10⁻⁶ cm/s,10 to 30 µM,2.04 ± 0.2 µM,4.57 ± 0.25 µM,29.6 ± 9.4%
"Clc1ccc2[nH]c(-c3c[nH]c4ccc(Cl)cc34)cc2c1 [Compound 5, 5,5'-Dichloro-1H,1'H-2,3'-biindole]",0.5 ± 0.1 trolox equiv.,cns+,10.9 ± 0.7 ×10⁻⁶ cm/s,> 30 µM,2.57 ± 0.68 µM,> 100 µM,30 ± 10%
"COc1cccc2c1NC(c1c[nH]c3c(OC)cccc13)C2 (stereo not shown) [Compound 6, 7-Methoxy-3-(7-methoxyindolin-2-yl)-1H-indole]",1.0 ± 0.1 trolox equiv.,cns+,18.5 ± 0.8 ×10⁻⁶ cm/s,> 30 µM,3.27 ± 0.25 µM,> 100 µM,45 ± 8.7%
"FC(F)(F)c1ccc2c(c1)CC(c1c[nH]c3ccc(C(F)(F)F)cc13)N2 (stereo not shown) [Compound 7, 5-(Trifluoromethyl)-3-(5-(trifluoromethyl)indolin-2-yl)-1H-indole]",1.3 ± 0.1 trolox equiv.,cns+,18.1 ± 0.9 ×10⁻⁶ cm/s,10 to 30 µM,> 30 µM,6.63 ± 0.21 µM,45 ± 7.1%
"C#CCN1c2ccc(OC)cc2CC1c1cn(CC#C)c2ccc(OC)cc12 (stereo not shown) [Compound 8, 5-Methoxy-3-(5-methoxy-1-(prop-2-yn-1-yl)indolin-2-yl)-1-(prop-2-yn-1-yl)-1H-indole]",1.3 ± 0.1 trolox equiv.,cns+,8.3 ± 0.3 ×10⁻⁶ cm/s,> 30 µM,10.7 ± 1.3 µM,0.53 ± 0.02 µM,37 ± 11%
